Source: PubChem BioAssay AID248 (DTP/NCI, 2004)
Inconclusive results and toxic doses are left out.

Tested on: L1210 leukemia ip in BDF1 mice, survival T/C
Assay: NCI In Vivo Anticancer Drug Screen. Data for tumor model L1210 Leukemia (intraperitoneal) in B6D2F1 (BDF1) mice
Settings: endpoint: mean survival time, higher = longer survival
How it was run: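 Antitumor effect is assessed in tumor-bearing animals. Survival in the compound arm is compared with a vehicle-dosed control arm and expressed as their quotient.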

[1] = dose: 100.0 mg/kg/injection, schedule: Q04DX003 (ip), vehicle: saline with Tween-80
[2] = dose: 200.0 mg/kg/injection, schedule: Q04DX003 (ip), vehicle: saline with Tween-80
[3] = dose: 400.0 mg/kg/injection, schedule: Q04DX003 (ip), vehicle: saline with Tween-80
[4] = dose: 100.0 mg/kg/injection, schedule: Q01DX009 (ip), vehicle: Klucel (hydroxypropylcellulose) (HPC)
[5] = dose: 200.0 mg/kg/injection, schedule: Q01DX009 (ip), vehicle: Klucel (hydroxypropylcellulose) (HPC)
[6] = dose: 400.0 mg/kg/injection, schedule: Q01DX009 (ip), vehicle: Klucel (hydroxypropylcellulose) (HPC)

CC(=O)NC(CO)(CO)CO
T/C (dose: 100.0 mg/kg/injection, schedule: Q01DX001 (ip), vehicle: saline): 94 % of control
T/C (dose: 100.0 mg/kg/injection, schedule: Q01DX009 (ip), vehicle: saline): 94 % of control
T/C (dose: 200.0 mg/kg/injection, schedule: Q01DX001 (ip), vehicle: saline): 102 % of control
T/C (dose: 200.0 mg/kg/injection, schedule: Q01DX009 (ip), vehicle: saline): 89 % of control
T/C (dose: 400.0 mg/kg/injection, schedule: Q01DX001 (ip), vehicle: saline): 98 % of control
T/C (dose: 400.0 mg/kg/injection, schedule: Q01DX009 (ip), vehicle: saline): 90 % of control

CN(C)C/C(=C\c1ccccc1)C(=O)c1ccccc1
T/C (dose: 100.0 mg/kg/injection, schedule: Q04DX003 (ip), vehicle: other): 98 % of control

CCCCC(CC)(CO)CO
T/C [1]: 110 % of control
T/C [2]: 100 % of control
T/C [3]: 111 % of control

Nc1c(Cl)cc([N+](=O)[O-])cc1Cl
T/C (dose: 50.0 mg/kg/injection, schedule: Q01DX001 (ip), vehicle: carboxymethylcellulose (CMC)): 95 % of control
T/C (dose: 100.0 mg/kg/injection, schedule: Q01DX001 (ip), vehicle: carboxymethylcellulose (CMC)): 92 % of control
T/C (dose: 100.0 mg/kg/injection, schedule: Q01DX009 (ip), vehicle: saline with Tween-80): 103 % of control
T/C [1]: 97 % of control
T/C (dose: 200.0 mg/kg/injection, schedule: Q01DX001 (ip), vehicle: carboxymethylcellulose (CMC)): 106 % of control
T/C (dose: 200.0 mg/kg/injection, schedule: Q01DX009 (ip), vehicle: saline with Tween-80): 92 % of control
T/C [2]: 93 % of control
T/C (dose: 400.0 mg/kg/injection, schedule: Q01DX001 (ip), vehicle: carboxymethylcellulose (CMC)): 95 % of control
T/C (dose: 400.0 mg/kg/injection, schedule: Q01DX009 (ip), vehicle: saline with Tween-80): 95 % of control
T/C [3]: 93 % of control

CNC(=N)c1ccc(NC(=N)c2ccc(NC(=O)Nc3ccc(NC(=O)Nc4ccc(C(=N)Nc5ccc(C(=N)NC)cc5)cc4)cc3)cc2)cc1
T/C (dose: 0.5 mg/kg/injection, schedule: Q01DX015 (ip), vehicle: water): 103 % of control
T/C (dose: 1.0 mg/kg/injection, schedule: Q01DX015 (ip), vehicle: water): 116 % of control
T/C (dose: 2.0 mg/kg/injection, schedule: Q01DX015 (ip), vehicle: water): 152 % of control
T/C (dose: 5.0 mg/kg/injection, schedule: Q01DX Z (ip), vehicle: water): 156 % of control
T/C (dose: 7.5 mg/kg/injection, schedule: Q01DX Z (ip), vehicle: water): 180 % of control
T/C (dose: 10.0 mg/kg/injection, schedule: Q01DX Z (ip), vehicle: water): 150 % of control
T/C (dose: 15.0 mg/kg/injection, schedule: Q01DX Z (ip), vehicle: water): 161 % of control
T/C (dose: 20.0 mg/kg/injection, schedule: Q01DX Z (ip), vehicle: water): 104 % of control
T/C (dose: 30.0 mg/kg/injection, schedule: Q01DX Z (ip), vehicle: water): 87 % of control
T/C (dose: 35.7 mg/kg/injection, schedule: Q01DX Z (ip), vehicle: water): 101 % of control

O=C1C2=C(NC1(c1ccccc1)c1ccccc1)c1ccccc1C2
T/C (dose: 50.0 mg/kg/injection, schedule: Q01DX009 (ip), vehicle: Klucel (hydroxypropylcellulose) (HPC)): 101 % of control
T/C [4]: 105 % of control
T/C [5]: 97 % of control

O=C(Nc1cccc(Cl)c1Cl)N(Cc1ccccc1)Cc1ccccc1
T/C [4]: 108 % of control
T/C [5]: 97 % of control
T/C [6]: 101 % of control

Cc1cc(=O)[nH]n1-c1ccc([N+](=O)[O-])cc1
T/C (dose: 100.0 mg/kg/injection, schedule: Q04DX003 (ip), vehicle: Klucel (hydroxypropylcellulose) (HPC)): 94 % of control
T/C (dose: 200.0 mg/kg/injection, schedule: Q04DX003 (ip), vehicle: Klucel (hydroxypropylcellulose) (HPC)): 97 % of control
T/C (dose: 400.0 mg/kg/injection, schedule: Q04DX003 (ip), vehicle: Klucel (hydroxypropylcellulose) (HPC)): 89 % of control

O=C(Nc1ccc(Cl)c([N+](=O)[O-])c1)Nc1nc(C(F)(F)F)cc(=O)[nH]1
T/C [4]: 98 % of control
T/C [5]: 95 % of control
T/C [6]: 93 % of control

C=CCOC(=O)Nc1cccc(OC(=O)NC)c1
T/C [1]: 105 % of control
T/C [2]: 105 % of control
T/C [3]: 100 % of control

Cc1cc(O)ccc1C1=NCC(C)S1 (centres undefined)
T/C (dose: 100.0 mg/kg/injection, schedule: Q01DX005 (ip), vehicle: Klucel (hydroxypropylcellulose) (HPC)): 87 % of control
T/C [4]: 98 % of control
T/C (dose: 100.0 mg/kg/injection, schedule: Q04DX002 (ip), vehicle: Klucel (hydroxypropylcellulose) (HPC)): 100 % of control
T/C (dose: 200.0 mg/kg/injection, schedule: Q01DX005 (ip), vehicle: Klucel (hydroxypropylcellulose) (HPC)): 101 % of control
T/C [5]: 109 % of control
T/C (dose: 200.0 mg/kg/injection, schedule: Q04DX002 (ip), vehicle: Klucel (hydroxypropylcellulose) (HPC)): 100 % of control
T/C (dose: 400.0 mg/kg/injection, schedule: Q01DX005 (ip), vehicle: Klucel (hydroxypropylcellulose) (HPC)): 90 % of control
T/C [6]: 95 % of control
T/C (dose: 400.0 mg/kg/injection, schedule: Q04DX002 (ip), vehicle: Klucel (hydroxypropylcellulose) (HPC)): 107 % of control
